Measured values taken from patent US8034940B2, “Modulators of glucocorticoid receptor, AP-1, and/or NF-κB activity and use thereof” (Bristol-Myers Squibb Company, priority 2006, dated 2011).

Target: T1, human full-length glucocorticoid receptor (Homo sapiens, UniProt P04150)
T1 sequence (P04150 1-777): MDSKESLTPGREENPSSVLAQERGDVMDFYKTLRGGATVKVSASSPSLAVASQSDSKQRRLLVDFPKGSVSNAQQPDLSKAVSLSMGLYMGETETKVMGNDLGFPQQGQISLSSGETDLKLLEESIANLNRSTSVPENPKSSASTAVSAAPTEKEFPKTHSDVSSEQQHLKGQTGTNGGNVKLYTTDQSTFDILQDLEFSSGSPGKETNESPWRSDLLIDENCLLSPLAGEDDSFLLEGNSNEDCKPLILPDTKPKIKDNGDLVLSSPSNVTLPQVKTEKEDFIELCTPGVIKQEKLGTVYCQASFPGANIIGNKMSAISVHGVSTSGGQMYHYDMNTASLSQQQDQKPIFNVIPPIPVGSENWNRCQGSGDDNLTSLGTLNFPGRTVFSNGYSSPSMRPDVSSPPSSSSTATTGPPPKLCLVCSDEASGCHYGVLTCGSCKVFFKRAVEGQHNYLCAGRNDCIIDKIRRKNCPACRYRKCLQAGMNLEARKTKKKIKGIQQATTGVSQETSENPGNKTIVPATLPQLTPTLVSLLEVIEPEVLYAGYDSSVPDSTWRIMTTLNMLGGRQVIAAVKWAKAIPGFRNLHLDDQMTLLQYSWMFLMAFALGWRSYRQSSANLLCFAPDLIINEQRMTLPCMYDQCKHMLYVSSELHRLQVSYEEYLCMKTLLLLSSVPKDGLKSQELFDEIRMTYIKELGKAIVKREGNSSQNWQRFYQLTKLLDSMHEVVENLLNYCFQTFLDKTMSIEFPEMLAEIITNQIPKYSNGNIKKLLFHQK
Assay: Glucocorticoid Receptor Binding Assay (I), fluorescence polarization, Fluormone GS Red
Set-up: purified human recombinant full-length glucocorticoid receptor; purchased Invitrogen Part #2893
Conditions: GR Binding Assay (I); read-out: GR (Ki, nM) (GR Binding Assay (I))
Procedure: Glucocorticoid Receptor Binding Assay (I)^a
Briefly, purified human recombinant full-length glucocorticoid receptor (2 nM) was mixed with fluorescently labeled glucocorticoid (1 nM Fluormone GS Red) in the presence or absence of test compound. After two hour incubation at room temperature in the dark, the fluorescence polarization (FP) of the samples was measured. […] Test compounds were analyzed in the concentration range from 8.5E-05 μM to 5 μM.

Structure (SMILES)	Ki [nM]
CC(C)(C(=O)Nc1nnc(C(F)(F)F)s1)[C@H]1c2ccccc2Oc2nc(-c3ccc(C(=O)N4CCCC4)c(F)c3)ccc21 [Example 412]	22.3
CN(C)C(=O)c1ccc(-c2ccc3c(c2)Oc2ncccc2C3C(C)(C)C(=O)Nc2nncs2)cc1 (stereo not drawn) [Example 490]	14.8
CC(C)(C(=O)Nc1nncs1)C1c2ccccc2Oc2cc(-c3ccc(C(=O)O)cn3)ccc21 (stereo not drawn) [Example 101]	19.8
CC(C)(C)OC(=O)N1CC=C(c2ccc3c(n2)Oc2ccccc2[C@@H]3C(C)(C)C(=O)Nc2nncs2)CC1 [Example 406]	176
CC(C)(C(=O)Nc1nncs1)C1c2ccccc2Oc2cc(C(=O)N3CCOCC3)ccc21 (stereo not drawn) [Example 116]	346
CN(C)C(=O)c1ccc(-c2ccc3c(n2)Oc2ccccc2C3C(C)(C)C(=O)NCC(F)(F)F)cc1 (stereo not drawn) [Example 367]	692
CC(C)(C(=O)Nc1nncs1)C1c2ccccc2Oc2cc(C(=O)NCc3ccccc3)ccc21 (stereo not drawn) [Example 118]	76.6
CN(C)C(=O)c1ccc(-c2ccc3c(n2)Oc2ccccc2[C@@H]3C(C)(C)C(=O)Nc2nccs2)cc1 [Example 245]	1.01
CC(C)(C(=O)NC1=NC(=O)CS1)[C@H]1c2ccccc2Oc2nc(-c3ccc(C(=O)N4CCCC4)c(F)c3)ccc21 [Example 413]	37.7
Cc1nnc(NC(=O)C(C)(C)[C@H]2c3ccccc3Oc3nc(-c4cc(F)c(C(=O)N(C)C)c(F)c4)ccc32)s1 [Example 469]	49.8
CCCN(C)C(=O)c1ccc(-c2ccc3c(n2)Oc2ccccc2[C@@H]3C(C)(C)C(=O)Nc2nncs2)cc1Cl [Example 346]	3.04
CC(C)(C(=O)Nc1nncs1)[C@H]1c2ccccc2Oc2nc(-c3ccc4c(c3)CCC4=O)ccc21 [Example 451]	5.57
COCCNC(=O)c1ccc(-c2ccc3c(n2)Oc2ccccc2[C@@H]3C(C)(C)C(=O)Nc2nncs2)cc1 [Example 355]	19.6
CN(C)C(=O)n1cc(-c2ccc3c(n2)Oc2ccccc2[C@@H]3C(C)(C)C(=O)Nc2nncs2)cn1 [Example 453]	17.6
CC(=O)c1ccc2c(n1)Oc1ccccc1[C@@H]2C(C)(C)C(=O)Nc1nncs1 [Example 397]	40.9
CC(C)(C(=O)Nc1nncs1)[C@H]1c2ccccc2Oc2nc(-c3ccc(C(=O)N4CCNC(=O)CC4)cc3)ccc21 [Example 311]	25.8
CC(C)(C(=O)Nc1nncs1)[C@H]1c2ccccc2Oc2nc(-c3ccc(S(=O)(=O)NC4CC4)cc3)ccc21 [Example 235]	4.85
COC[C@@H]1CCCN1C(=O)c1ccc(-c2ccc3c(n2)Oc2ccccc2[C@@H]3C(C)(C)C(=O)Nc2nncs2)cc1 [Example 272]	12.6
CC(C)(C(=O)Nc1nncs1)C1c2ccccc2Oc2cc(NC(=O)NCc3ccccc3)ccc21 (stereo not drawn) [Example 122]	80
CN1CCN(C(=O)c2ccc(-c3ccc4c(n3)Oc3ccccc3[C@@H]4C(C)(C)C(=O)Nc3nncs3)cc2)CC1 [Example 256]	180
CN(C)C(=O)c1ccc(-c2ccc3c(n2)Oc2ccccc2C3C(C)(C)C(=O)Nc2ccccn2)cc1 (stereo not drawn) [Example 438]	53.1
CC(C)(C(=O)Nc1nncs1)[C@H]1c2ccccc2Oc2nc(-c3ccc(C(=O)N4CCCC(=O)CC4)cc3)ccc21 [Example 322]	18.9
CN(C)C(=O)c1ccc(-c2ccc3c(n2)Oc2ccccc2C3CC(=O)Nc2nncs2)cc1 (stereo not drawn) [Example 491]	> 1150
CC(C)(C(=O)Nc1nncs1)[C@H]1c2ccccc2Oc2nc(-c3cc4ccccc4o3)ccc21 [Example 216]	4.14
CC(C)(C(=O)Nc1nncs1)[C@H]1c2ccccc2Oc2nc(-c3ccc(S(C)(=O)=O)cc3)ccc21 [Example 214]	1.37
CC(C(=O)Nc1nncs1)C1c2ccccc2Oc2nc(-c3ccc(C(=O)N(C)C)cc3)ccc21 (mixture of isomers) [Example 482]	45
CN(C)S(=O)(=O)c1ccc(-c2ccc3c(n2)Oc2ccccc2[C@@H]3C(C)(C)C(=O)Nc2nncs2)cc1 [Example 232]	4.57
